The text below walks through data of ChEMBL document CHEMBL3880420, “1,5-Diaryl-2-alkylpyrrole-3-Substituted Nitro Esters, Selective COX-2 Inhibitors and Nitric Oxide Donors” (2013).

Experiment [1] has as its target T1, Prostaglandin G/H synthase 1 (Mus musculus) (UniProt P22437).
T1 sequence (whole entry): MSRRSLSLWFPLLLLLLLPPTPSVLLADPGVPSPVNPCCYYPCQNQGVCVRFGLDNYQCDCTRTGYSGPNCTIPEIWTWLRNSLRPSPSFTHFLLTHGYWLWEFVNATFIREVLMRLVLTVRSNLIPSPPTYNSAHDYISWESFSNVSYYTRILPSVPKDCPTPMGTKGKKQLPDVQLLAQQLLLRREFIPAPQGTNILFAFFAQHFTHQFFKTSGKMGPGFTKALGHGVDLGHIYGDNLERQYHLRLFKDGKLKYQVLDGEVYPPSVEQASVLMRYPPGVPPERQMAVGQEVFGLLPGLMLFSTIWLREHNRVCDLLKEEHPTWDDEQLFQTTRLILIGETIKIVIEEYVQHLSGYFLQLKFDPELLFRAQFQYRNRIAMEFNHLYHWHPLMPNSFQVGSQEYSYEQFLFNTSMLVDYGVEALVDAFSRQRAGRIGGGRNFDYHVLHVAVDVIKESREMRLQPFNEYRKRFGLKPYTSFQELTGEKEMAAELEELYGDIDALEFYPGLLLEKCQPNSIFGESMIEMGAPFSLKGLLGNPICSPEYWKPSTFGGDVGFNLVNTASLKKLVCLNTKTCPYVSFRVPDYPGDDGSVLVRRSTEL
As to the kind of experiment: Inhibition of COX1 in mouse J774 cells using arachidonic acid as substrate assessed as decrease in PGE2 production at 10 uM preincubated for 15 mins followed by substrate addition measured after 30 mins by radioimmunoassay relative to control. Format: cell-based.

Experiment [2] can be described thus: Vasorelaxing effect in Wistar rat thoracic aorta ring assessed as reduction of KCl-induced contractile tone at 10 uM in presence of guanylate cyclase inhibitor ODQ1. Format: functional.
Experiment [3] relates to Liver. As to the kind of experiment: Induction of nitric oxide release in rat liver assessed as time require for amount of nitrite release by test compound equal to half its maximum release at 1 mM by amperometric method. Format: functional.
For experiment [4], the system named is Liver. As to the kind of experiment: Induction of nitric oxide release in rat liver assessed as increase in nitrite levels at 1 mM by amperometric method. Format: functional, tissue-based. The conditions noted are these: TDE = time-dependent effect.

Activity calls are given as the source filed them. The calls are words filed in the database; no cut-off is given here.

As usually defined, the inhibition is the relative decrease from the control value, in per cent. Turning to `COc1ccc(-n2c(-c3ccc(S(C)(=O)=O)cc3)cc(CC(=O)OCCCO[N+](=O)[O-])c2C)cc1`, the inhibition in experiment [1] is < 20%.

`Cc1c(CCOCCO)cc(-c2ccc(S(C)(=O)=O)cc2)n1-c1cccc(F)c1`: the inhibition in experiment [1] was < 20%.

Regarding `CSc1ccc(-n2c(-c3ccc(S(C)(=O)=O)cc3)cc(CC(=O)OCCCCO)c2C)cc1`, the inhibition in experiment [1] was < 20%.

With `Cc1c(CC(=O)OCCCCO)cc(-c2ccc(S(C)(=O)=O)cc2)n1-c1cccc(F)c1`, the inhibition in experiment [1] was < 20%.

Take `Cc1c(CCOCCO)cc(-c2ccc(S(C)(=O)=O)cc2)n1-c1ccc(F)cc1`: the inhibition in experiment [1] was < 20%.

Consider `Cc1c(CCOCCCO)cc(-c2ccc(S(C)(=O)=O)cc2)n1-c1ccc(F)cc1`, for which, in experiment [1], the inhibition was < 20%.

Take `COc1ccc(-n2c(-c3ccc(S(C)(=O)=O)cc3)cc(CC(=O)OCCCCO)c2C)cc1`: the inhibition in experiment [1] is < 20%.

Take `CSc1ccc(-n2c(-c3ccc(S(C)(=O)=O)cc3)cc(CC(=O)OCCCCO[N+](=O)[O-])c2C)cc1`: in experiment [2], the result was Active. Besides, the inhibition in experiment [1] was < 20%.

With `Cc1c(CCOCCCO[N+](=O)[O-])cc(-c2ccc(S(C)(=O)=O)cc2)n1-c1cccc(F)c1`, the inhibition in experiment [1] is < 20%. For the same molecule, the T1/2 in the experiment on Liver [3] was 1.41 h. Moreover, in the experiment on Liver [4], the Activity result was “Tde”.

With `Cc1c(CC(=O)OCCCO[N+](=O)[O-])cc(-c2ccc(S(C)(=O)=O)cc2)n1-c1cccc(F)c1`, the inhibition in experiment [1] is < 20%.

As to `Cc1c(CCOCCCO[N+](=O)[O-])cc(-c2ccc(S(C)(=O)=O)cc2)n1-c1ccccc1`, in experiment [1], the inhibition is < 20%.

For the molecule `COc1ccc(-n2c(-c3ccc(S(C)(=O)=O)cc3)cc(CC(=O)OCCO[N+](=O)[O-])c2C)cc1`, the inhibition in experiment [1] is < 20%.

Regarding `Cc1c(CC(=O)NCCO)cc(-c2ccc(S(C)(=O)=O)cc2)n1-c1ccc(F)cc1`, the inhibition in experiment [1] was < 20%.

Regarding `Cc1c(CC(=O)NC(CCO[N+](=O)[O-])C(=O)O)cc(-c2ccc(S(C)(=O)=O)cc2)n1-c1cccc(F)c1` (racemic), the inhibition in experiment [1] was < 20%.

With `Cc1c(CC(=O)NCCO)cc(-c2ccc(S(C)(=O)=O)cc2)n1-c1cccc(F)c1`, the inhibition in experiment [1] is < 20%.

As to `Cc1c(CCOCCO[N+](=O)[O-])cc(-c2ccc(S(C)(=O)=O)cc2)n1-c1ccccc1`, the inhibition in experiment [1] was < 20%.

With `Cc1c(CC(=O)N[C@@H](CO)C(=O)O)cc(-c2ccc(S(C)(=O)=O)cc2)n1-c1ccc(F)cc1`, the inhibition in experiment [1] was < 20%.

As to `CSc1ccc(-n2c(-c3ccc(S(C)(=O)=O)cc3)cc(CC(=O)OCCO)c2C)cc1`, in experiment [1], the inhibition is < 20%.

In the case of `Cc1c(CCOCCO)cc(-c2ccc(S(C)(=O)=O)cc2)n1-c1ccc(F)c(F)c1`, in experiment [1], the inhibition is < 20%.

For `CSc1ccc(-n2c(-c3ccc(S(C)(=O)=O)cc3)cc(CC(=O)OCCCO[N+](=O)[O-])c2C)cc1`, in experiment [1], the inhibition is < 20%.

As to `Cc1c(CC(=O)OCCCCO[N+](=O)[O-])cc(-c2ccc(S(C)(=O)=O)cc2)n1-c1cccc(F)c1`, in experiment [1], the inhibition is < 20%.

With `Cc1c(CC(=O)OCCO)cc(-c2ccc(S(C)(=O)=O)cc2)n1-c1ccc(F)cc1`, the inhibition in experiment [1] was < 20%.

On to `Cc1c(CC(=O)OCC(CO[N+](=O)[O-])O[N+](=O)[O-])cc(-c2ccc(S(C)(=O)=O)cc2)n1-c1ccccc1` (racemic), for which, in experiment [1], the inhibition was < 20%.

On to `Cc1c(CC(=O)NC(CCO[N+](=O)[O-])C(=O)O)cc(-c2ccc(S(C)(=O)=O)cc2)n1-c1ccc(F)cc1` (racemic), for which the inhibition in experiment [1] is < 20%.

In the case of `Cc1c(CCOCCCO)cc(-c2ccc(S(C)(=O)=O)cc2)n1-c1cccc(F)c1`, the inhibition in experiment [1] was < 20%.

With `Cc1c(CC(=O)NCCCO)cc(-c2ccc(S(C)(=O)=O)cc2)n1-c1ccc(F)cc1`, the inhibition in experiment [1] is < 20%.

`Cc1c(CC(=O)OCCO[N+](=O)[O-])cc(-c2ccc(S(C)(=O)=O)cc2)n1-c1ccccc1`: the inhibition in experiment [1] was < 20%.

Regarding `COc1ccc(-n2c(-c3ccc(S(C)(=O)=O)cc3)cc(CC(=O)OCCCO)c2C)cc1`, the inhibition in experiment [1] was < 20%.

In the case of `COc1ccc(-n2c(-c3ccc(S(C)(=O)=O)cc3)cc(CC(=O)OCCO)c2C)cc1`, the inhibition in experiment [1] is < 20%.

As to `Cc1c(CCOCCO[N+](=O)[O-])cc(-c2ccc(S(C)(=O)=O)cc2)n1-c1ccc(F)cc1`, the inhibition in experiment [1] was < 20%. Besides, the T1/2 in the experiment on Liver [3] came out at 0.713 h.

On to `CSc1ccc(-n2c(-c3ccc(S(C)(=O)=O)cc3)cc(CC(=O)OCCO[N+](=O)[O-])c2C)cc1`, for which, in experiment [1], the inhibition is < 20%.

Consider `Cc1c(CC(=O)N[C@@H](CO[N+](=O)[O-])C(=O)O)cc(-c2ccc(S(C)(=O)=O)cc2)n1-c1cccc(F)c1`, for which, in experiment [1], the inhibition was < 20%.

As to `Cc1c(CC(=O)OCCO[N+](=O)[O-])cc(-c2ccc(S(C)(=O)=O)cc2)n1-c1ccc(F)cc1`, in experiment [1], the inhibition was < 20%. Moreover, the T1/2 in the experiment on Liver [3] was 1.15 h.

Take `Cc1c(CC(=O)OCCO[N+](=O)[O-])cc(-c2ccc(S(C)(=O)=O)cc2)n1-c1cccc(F)c1`: the inhibition in experiment [1] was < 20%.

With `Cc1c(CCOCCCO[N+](=O)[O-])cc(-c2ccc(S(C)(=O)=O)cc2)n1-c1ccc(F)cc1`, the inhibition in experiment [1] was < 20%.

For `Cc1c(CC(=O)NCCCO)cc(-c2ccc(S(C)(=O)=O)cc2)n1-c1cccc(F)c1`, the inhibition in experiment [1] was < 20%.

On to `Cc1c(CC(=O)OCCCCO[N+](=O)[O-])cc(-c2ccc(S(C)(=O)=O)cc2)n1-c1ccc(F)cc1`, for which the inhibition in experiment [1] was < 20%.

As to `Cc1c(CC(=O)NCCO[N+](=O)[O-])cc(-c2ccc(S(C)(=O)=O)cc2)n1-c1ccc(F)cc1`, in experiment [1], the inhibition is < 20%.

In the case of `Cc1c(CC(=O)NC(CCO)C(=O)O)cc(-c2ccc(S(C)(=O)=O)cc2)n1-c1ccc(F)cc1` (racemic), in experiment [1], the inhibition is < 20%.

With `O=C(NCCO[N+](=O)[O-])c1cccnc1`, the T1/2 in the experiment with Liver [3] was found to be 0.463 h.

As for `Cc1c(CC(=O)OCCCO)cc(-c2ccc(S(C)(=O)=O)cc2)n1-c1cccc(F)c1`, the inhibition in experiment [1] is < 20%.

Regarding `Cc1c(CC(=O)N[C@@H](CO[N+](=O)[O-])C(=O)O)cc(-c2ccc(S(C)(=O)=O)cc2)n1-c1ccc(F)cc1`, the inhibition in experiment [1] is < 20%.

As for `Cc1c(C(N)C(=O)OCCCCO[N+](=O)[O-])cc(-c2ccc(S(C)(=O)=O)cc2)n1-c1ccc(F)cc1` (racemic), the result in experiment [2] was Active. Moreover, the inhibition in experiment [1] is < 20%.

In the case of `Cc1c(CC(=O)OCCO)cc(-c2ccc(S(C)(=O)=O)cc2)n1-c1cccc(F)c1`, the inhibition in experiment [1] is < 20%.

For `Cc1c(CC(=O)N[C@@H](CO)C(=O)O)cc(-c2ccc(S(C)(=O)=O)cc2)n1-c1cccc(F)c1`, the inhibition in experiment [1] is < 20%.

In the case of `Cc1c(C(N)C(=O)OCCCO[N+](=O)[O-])cc(-c2ccc(S(C)(=O)=O)cc2)n1-c1ccc(F)cc1` (racemic), the outcome in experiment [2] was Active. The inhibition in experiment [1] is < 20%.

With `Cc1c(CCOCCO)cc(-c2ccc(S(C)(=O)=O)cc2)n1-c1ccccc1`, in experiment [1], the inhibition is < 20%.

Take `Cc1c(CC(=O)OCCO)cc(-c2ccc(S(C)(=O)=O)cc2)n1-c1ccccc1`: the inhibition in experiment [1] is < 20%.

As for `Cc1c(CCOCCO[N+](=O)[O-])cc(-c2ccc(S(C)(=O)=O)cc2)n1-c1cccc(F)c1`, the inhibition in experiment [1] is < 20%. In addition, in the experiment with Liver [3], the T1/2 is 1.01 h.

Turning to `Cc1c(C(N)C(=O)OCCO[N+](=O)[O-])cc(-c2ccc(S(C)(=O)=O)cc2)n1-c1ccc(F)cc1` (racemic), the inhibition in experiment [1] is < 20%.

Regarding `CSc1ccc(-n2c(-c3ccc(S(C)(=O)=O)cc3)cc(CC(=O)OCCCO)c2C)cc1`, in experiment [1], the inhibition is < 20%.

`Cc1c(CCOCCO[N+](=O)[O-])cc(-c2ccc(S(C)(=O)=O)cc2)n1-c1ccc(F)c(F)c1`: the inhibition in experiment [1] is < 20%. The T1/2 in the experiment on Liver [3] is 1.14 h.

Consider `COc1ccc(-n2c(-c3ccc(S(C)(=O)=O)cc3)cc(CC(=O)OCCCCO[N+](=O)[O-])c2C)cc1`, for which, in experiment [1], the inhibition was < 20%.

Take `COc1ccc2cc([C@H](C)C(=O)OCCCCO[N+](=O)[O-])ccc2c1`: the Activity result in the experiment on Liver [4] is “Tde”.
